Laboratory results reported in ChEMBL document CHEMBL1132777, “Novel, potent and selective chimeric FXa inhibitors featuring hydrophobic P1-ketoamide moieties” (Bioorg Med Chem Lett, 2000).
pIC50: −log10 of the molar value.

Columns and labels:
Plasminogen [1] = molecular target: T1, Plasminogen (Homo sapiens, UniProt P00747); experiment: In vitro inhibitory activity against plasmin; inactive
Serine protease 1 [2] = molecular target: T2, Serine protease 1 (Homo sapiens, UniProt P07477); experiment: In vitro inhibitory activity against Human trypsin
T2 sequence (P07477 whole entry): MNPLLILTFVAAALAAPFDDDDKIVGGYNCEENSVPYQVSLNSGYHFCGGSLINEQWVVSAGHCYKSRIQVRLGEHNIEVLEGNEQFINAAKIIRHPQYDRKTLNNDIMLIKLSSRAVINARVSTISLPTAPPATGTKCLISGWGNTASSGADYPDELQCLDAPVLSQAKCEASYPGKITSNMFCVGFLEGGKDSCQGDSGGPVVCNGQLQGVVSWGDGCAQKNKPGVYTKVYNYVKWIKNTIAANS

Coagulation factor X [3] = molecular target: T3, Coagulation factor X (Homo sapiens, UniProt P00742); experiment: Inhibitory activity against Coagulation factor X
Target sequence in this assay (P00742 41-179 limits assumed): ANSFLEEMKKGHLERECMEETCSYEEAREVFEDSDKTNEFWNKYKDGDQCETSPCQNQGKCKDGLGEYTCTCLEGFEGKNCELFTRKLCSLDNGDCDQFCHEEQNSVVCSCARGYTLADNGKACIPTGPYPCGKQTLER
Target sequence in this assay (P00742 235-488 limits assumed): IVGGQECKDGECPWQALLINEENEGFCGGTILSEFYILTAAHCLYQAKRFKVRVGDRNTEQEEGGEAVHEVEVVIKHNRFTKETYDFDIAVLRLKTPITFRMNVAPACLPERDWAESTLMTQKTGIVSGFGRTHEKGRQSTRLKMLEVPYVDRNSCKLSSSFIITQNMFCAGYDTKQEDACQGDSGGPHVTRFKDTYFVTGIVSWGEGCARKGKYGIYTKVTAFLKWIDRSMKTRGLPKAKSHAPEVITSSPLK

Prothrombin [4] = molecular target: T4, Prothrombin (Homo sapiens, UniProt P00734); experiment: In vitro inhibitory activity against Thrombin (FIIa)
Prothrombin [5] = molecular target: T4, Prothrombin; experiment: In vitro inhibitory activity against Thrombin (FIIa); inactive
Plasminogen [6] = molecular target: T1, Plasminogen; experiment: In vitro inhibitory activity against plasmin
Serine protease 1 [7] = molecular target: T2, Serine protease 1; experiment: In vitro inhibitory activity against Human trypsin; inactive
Coagulation factor X [8] = molecular target: T3, Coagulation factor X; experiment: In vitro inhibitory activity against prothrombinase (PTase) complex
Target sequence in this assay (P00742 whole entry): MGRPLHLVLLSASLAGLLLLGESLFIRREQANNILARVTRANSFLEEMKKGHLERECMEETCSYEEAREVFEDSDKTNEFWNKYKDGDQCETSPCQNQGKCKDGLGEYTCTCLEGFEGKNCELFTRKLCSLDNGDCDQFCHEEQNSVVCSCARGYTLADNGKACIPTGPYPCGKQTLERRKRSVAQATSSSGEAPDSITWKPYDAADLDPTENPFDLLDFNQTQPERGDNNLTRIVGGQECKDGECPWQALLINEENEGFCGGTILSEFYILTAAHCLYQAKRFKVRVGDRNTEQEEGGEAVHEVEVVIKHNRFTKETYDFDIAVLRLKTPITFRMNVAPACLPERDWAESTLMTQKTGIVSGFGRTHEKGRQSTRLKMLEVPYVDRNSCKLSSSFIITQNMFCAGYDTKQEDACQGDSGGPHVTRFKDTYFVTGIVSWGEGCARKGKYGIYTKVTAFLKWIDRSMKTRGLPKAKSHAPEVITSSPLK

T1 sequence (P00747 97-580 limits assumed): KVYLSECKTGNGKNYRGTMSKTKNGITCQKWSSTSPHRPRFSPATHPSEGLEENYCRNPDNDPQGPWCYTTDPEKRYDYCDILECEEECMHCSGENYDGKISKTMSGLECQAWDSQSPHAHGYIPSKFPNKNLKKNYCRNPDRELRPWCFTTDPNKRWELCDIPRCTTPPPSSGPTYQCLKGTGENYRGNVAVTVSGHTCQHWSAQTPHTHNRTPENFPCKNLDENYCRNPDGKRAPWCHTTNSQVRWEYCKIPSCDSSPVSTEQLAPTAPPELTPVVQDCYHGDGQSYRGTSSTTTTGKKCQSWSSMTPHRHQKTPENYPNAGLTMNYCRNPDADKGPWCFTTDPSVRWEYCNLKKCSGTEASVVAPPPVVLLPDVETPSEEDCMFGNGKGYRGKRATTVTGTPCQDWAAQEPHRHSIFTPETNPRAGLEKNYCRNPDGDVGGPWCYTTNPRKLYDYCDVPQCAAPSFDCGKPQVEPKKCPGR
T1 sequence (P00747 581-810 limits assumed): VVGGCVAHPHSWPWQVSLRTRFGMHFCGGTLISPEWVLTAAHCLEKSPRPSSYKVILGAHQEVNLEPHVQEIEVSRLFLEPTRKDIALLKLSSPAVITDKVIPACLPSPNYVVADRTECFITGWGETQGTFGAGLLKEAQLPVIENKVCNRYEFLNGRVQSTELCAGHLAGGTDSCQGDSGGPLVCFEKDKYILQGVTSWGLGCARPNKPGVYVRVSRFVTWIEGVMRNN

SMILES	IC50 (Plasminogen [1])	pIC50 (Serine protease 1 [2])	pIC50 (Coagulation factor X [3])	pIC50 (Prothrombin [4])	IC50 (Prothrombin [5])	pIC50 (Plasminogen [6])	IC50 (Serine protease 1 [7])	pIC50 (Coagulation factor X [8])
CN(CC(=O)N[C@@H](CC1CCCCC1)C(=O)C(=O)NCCc1ccccc1)C(=O)[C@@H](CCCN=C(N)N)NS(=O)(=O)Cc1ccccc1	Not Active	< 5.60	7.88	5.66				
CCOC(=O)CNC(=O)C(=O)[C@H](Cc1ccc(OC(C)(C)C)cc1)NC(=O)CN(C)C(=O)[C@@H](CCCN=C(N)N)NS(=O)(=O)Cc1ccccc1.O=C(O)C(F)(F)F			6.61		Not Active	< 5.60	Not Active	
CCCCCNC(=O)C(=O)[C@H](CC1CCCCC1)NC(=O)CN(C)C(=O)[C@@H](CCCN=C(N)N)NS(=O)(=O)Cc1ccccc1		6.79	8.73	5.42		< 5.60		
CN(CC(=O)N[C@H]1CCCC(C(=N)N)C1O)C(=O)[C@@H](CCCN=C(N)N)NS(=O)(=O)Cc1ccccc1 (some centres undefined)		7.13	9.07	< 5.60		5.92		8.47
CCOC(=O)CNC(=O)C(=O)[C@H](Cc1ccccc1)NC(=O)CN(C)C(=O)[C@@H](CCCN=C(N)N)NS(=O)(=O)Cc1ccccc1	Not Active	< 5.60	8.18	< 5.60				7.60
CN(CC(=O)N[C@@H](CC1CCCCC1)C(=O)C(=O)NCc1ccccc1)C(=O)[C@@H](CCCN=C(N)N)NS(=O)(=O)Cc1ccccc1		5.60	8.49	5.71		< 5.60		
CCOC(=O)CNC(=O)C(=O)[C@H](CC1CCCCC1)NC(=O)CN(C)C(=O)[C@@H](CCCN=C(N)N)NS(=O)(=O)Cc1ccccc1	Not Active		8.67	< 5.60			Not Active	
CN(CC(=O)N[C@@H](Cc1ccccc1)C(=O)C(=O)NCC(=O)NCCc1ccccc1)C(=O)[C@@H](CCCN=C(N)N)NS(=O)(=O)Cc1ccccc1.O=C(O)C(F)(F)F	Not Active		8.10	< 5.60			Not Active	7.59
CN(CC(=O)N[C@@H](CC1CCCCC1)C(=O)C(=O)NCc1ccc2c(c1)OCO2)C(=O)[C@@H](CC/N=C(\N)N[N+](=O)[O-])NS(=O)(=O)Cc1ccccc1	Not Active		7.33	< 5.60			Not Active	
CCOC(=O)CNC(=O)C(=O)[C@H](Cc1ccc(O)cc1)NC(=O)CN(C)C(=O)[C@@H](CCCN=C(N)N)NS(=O)(=O)Cc1ccccc1.O=C(O)C(F)(F)F	Not Active		8.12	< 5.60			Not Active	7.53
